Measurements: ChEMBL document CHEMBL2331280, “Cytotoxic, antitopoisomerase IIα, and anti-HIV-1 activities of triterpenoids isolated from leaves and twigs of Gardenia carinata” (J Nat Prod, 2013)
The source made the active and inactive calls. The rule behind the calls is not given here.

Key:
[1] = biological target: Human immunodeficiency virus type 1 reverse transcriptase (Human immunodeficiency virus 1, UniProt Q72547); assay: Inhibition of HIV-1 reverse transcriptase assessed as decrease in incorporation of [3H]TTP into polyA template
[2] = Selectivity index, ratio of IC50 for human 1A2 cells to EC50 for deltaTat/rev deffective HIV-1 MC99 infected in human 1A2 cells; type: toxicity, cell-based; conditions: read-out: Ratio IC50/EC50
[3] = biological target: Human immunodeficiency virus type 1 reverse transcriptase (Human immunodeficiency virus 1) (UniProt Q72547); assay: Inhibition of HIV-1 reverse transcriptase assessed as decrease in incorporation of [3H]TTP into polyA template at 200 ug/ml
[4] = system: Human immunodeficiency virus 1; assay: Antiviral activity against deltaTat/rev deffective HIV-1 MC99 infected in human 1A2 cells assessed as inhibition of syncytia formation after 3 days; type: functional, organism-based; conditions: Human immunodeficiency virus 1, MC99, 1A2, 72 h
[5] = Cytotoxicity against human 1A2 cells assessed as inhibition of metabolic activity by XTT assay; type: ADME, cell-based
[6] = Cytotoxicity against rat ASK cells after 72 hrs by sulforhodamine B assay; type: functional; conditions: read-out: ED50 (the source's name)
HEK293 = assay: Cytotoxicity against human HEK293 cells after 72 hrs by sulforhodamine B assay; type: functional; conditions: HEK293, 72 h, read-out: ED50 (the source's name)
Lu1 = assay: Cytotoxicity against human Lu1 cells after 72 hrs by sulforhodamine B assay; type: functional; conditions: Lu1, 72 h, read-out: ED50 (the source's name)
MCF7 = assay: Cytotoxicity against human MCF7 cells after 72 hrs by sulforhodamine B assay; type: functional; conditions: MCF7, 72 h, read-out: ED50 (the source's name)
KB = assay: Cytotoxicity against human KB cells after 72 hrs by sulforhodamine B assay; type: functional; conditions: read-out: ED50 (the source's name)
Col2 = assay: Cytotoxicity against human Col2 cells after 72 hrs by sulforhodamine B assay; type: functional; conditions: Col2, 72 h, read-out: ED50 (the source's name)
P388 = assay: Cytotoxicity against mouse P388 cells after 48 hrs by sulforhodamine B assay; type: functional; conditions: P388, 48 h, read-out: ED50 (the source's name)
[7] = biological target: DNA topoisomerase 2-alpha (Homo sapiens) (UniProt P11388); assay: Inhibition of human DNA topoisomerase 2 alpha-mediated supercoiled pBR322 DNA relaxation at 20 uM after 1 hr by agarose gel electrophoresis
Sequence of DNA topoisomerase 2-alpha (Homo sapiens) (P11388 whole entry): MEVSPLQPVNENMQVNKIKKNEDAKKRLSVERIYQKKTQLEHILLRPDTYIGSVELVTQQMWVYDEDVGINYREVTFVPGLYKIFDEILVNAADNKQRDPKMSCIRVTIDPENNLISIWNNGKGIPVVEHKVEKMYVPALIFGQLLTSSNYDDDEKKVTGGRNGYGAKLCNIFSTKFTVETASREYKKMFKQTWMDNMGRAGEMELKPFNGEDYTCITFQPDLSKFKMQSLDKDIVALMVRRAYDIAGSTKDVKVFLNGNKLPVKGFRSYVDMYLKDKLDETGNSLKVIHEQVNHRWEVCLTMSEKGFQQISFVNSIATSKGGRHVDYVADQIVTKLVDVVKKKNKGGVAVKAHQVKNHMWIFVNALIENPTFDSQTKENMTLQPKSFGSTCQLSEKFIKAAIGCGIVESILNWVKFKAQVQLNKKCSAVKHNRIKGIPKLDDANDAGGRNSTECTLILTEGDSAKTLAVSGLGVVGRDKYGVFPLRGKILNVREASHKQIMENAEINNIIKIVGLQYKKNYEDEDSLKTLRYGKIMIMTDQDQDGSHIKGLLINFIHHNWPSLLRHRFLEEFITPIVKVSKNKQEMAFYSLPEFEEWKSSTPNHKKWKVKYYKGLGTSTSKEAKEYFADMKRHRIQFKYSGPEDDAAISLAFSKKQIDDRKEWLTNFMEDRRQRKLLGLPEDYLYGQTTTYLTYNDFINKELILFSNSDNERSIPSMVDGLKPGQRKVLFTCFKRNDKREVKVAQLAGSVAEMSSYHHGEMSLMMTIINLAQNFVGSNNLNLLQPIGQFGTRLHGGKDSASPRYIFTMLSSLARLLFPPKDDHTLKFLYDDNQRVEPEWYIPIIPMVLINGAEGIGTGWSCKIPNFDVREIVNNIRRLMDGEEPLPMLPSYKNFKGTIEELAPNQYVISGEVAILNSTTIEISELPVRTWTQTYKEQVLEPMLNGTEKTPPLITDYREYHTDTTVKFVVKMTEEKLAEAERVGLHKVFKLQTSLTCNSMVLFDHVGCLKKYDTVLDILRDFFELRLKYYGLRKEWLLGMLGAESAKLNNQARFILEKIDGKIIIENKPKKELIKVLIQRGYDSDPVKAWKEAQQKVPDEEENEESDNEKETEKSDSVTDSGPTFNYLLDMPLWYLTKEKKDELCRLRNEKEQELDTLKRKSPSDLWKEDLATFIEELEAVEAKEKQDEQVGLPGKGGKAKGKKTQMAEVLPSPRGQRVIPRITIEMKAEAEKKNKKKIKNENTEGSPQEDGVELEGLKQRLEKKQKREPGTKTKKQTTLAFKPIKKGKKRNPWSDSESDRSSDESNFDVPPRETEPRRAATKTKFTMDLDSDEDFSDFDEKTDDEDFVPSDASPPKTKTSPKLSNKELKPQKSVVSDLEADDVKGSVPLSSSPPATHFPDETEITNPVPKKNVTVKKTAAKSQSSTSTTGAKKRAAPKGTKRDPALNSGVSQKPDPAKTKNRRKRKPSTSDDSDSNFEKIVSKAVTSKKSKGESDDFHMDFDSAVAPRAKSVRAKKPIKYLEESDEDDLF

Question: For `C=C(C(=O)O)[C@@H]1CC[C@@H]2[C@]3(CC[C@]4(C)[C@@H]([C@H](C)CC(=O)C=C(C)C)CC[C@@]24C)C[C@]13CCC(=O)O`, which IC50 [1] is on record?
Answer: The IC50 was 68.7 µM.

Question: And the selectivity ratio [2]?
Answer: The selectivity ratio was over 7.

Question: And the inhibition [3]?
Answer: Its inhibition is 88.1%.

Question: And the EC50 [4]?
Answer: The EC50 was under 8.3 µM.

Question: What about the IC50 [5] of the same compound?
Answer: The IC50 was 57.7 µM.

Question: And the EC50 [6]?
Answer: The EC50 was over 10 µM.

Question: What about the EC50 (HEK293) of the same compound?
Answer: The EC50 was over 10 µM.

Question: What about the EC50 (Lu1) of the same compound?
Answer: Its EC50 is over 10 µM.

Question: What about the EC50 (MCF7) of the same compound?
Answer: Its EC50 is over 10 µM.

Question: And the EC50 (KB)?
Answer: The EC50 was over 10 µM.

Question: And the EC50 (Col2)?
Answer: The EC50 was over 10 µM.

Question: What about the EC50 (P388) of the same compound?
Answer: The EC50 was over 10 µM.

Question: Which inhibition [7] does the source give for `COc1cc([C@@H]2c3cc4c(cc3[C@@H](O[C@@H]3O[C@@H]5CO[C@@H](C)O[C@H]5[C@H](O)[C@H]3O)[C@H]3COC(=O)[C@H]23)OCO4)cc(OC)c1O` here?
Answer: The inhibition was 59%.

Question: With `CC(C)CC(=O)C[C@@H](C)[C@H]1CC[C@@]2(C)[C@@H]3CC[C@H]4[C@](C)(C(=O)O)[C@@H](O)CC[C@@]45C[C@@]35CC[C@]12C` (relative stereo) as the compound, how does the selectivity ratio [2] read?
Answer: The selectivity ratio was 1.2.

Question: And the inhibition [3]?
Answer: Its inhibition is 1.9%.

Question: And the EC50 [4]?
Answer: The EC50 was 62.7 µM.

Question: What about the IC50 [5] of the same compound?
Answer: Its IC50 is 72.5 µM.

Question: And the inhibition [7]?
Answer: Its inhibition is “Active”.

Question: What about the EC50 [6] of the same compound?
Answer: The EC50 was over 10 µM.

Question: And the EC50 (HEK293)?
Answer: Its EC50 is over 10 µM.

Question: And the EC50 (Lu1)?
Answer: Its EC50 is over 10 µM.

Question: What about the EC50 (MCF7) of the same compound?
Answer: Its EC50 is over 10 µM.

Question: What about the EC50 (KB) of the same compound?
Answer: Its EC50 is over 10 µM.

Question: And the EC50 (Col2)?
Answer: Its EC50 is over 10 µM.

Question: What about the EC50 (P388) of the same compound?
Answer: Its EC50 is 6.8 µM.

Question: Which results are given for `C=C1C(=O)O[C@@H]2C[C@@H]3[C@]4(CC[C@]5(C)[C@@H]([C@H](C)CC(=O)C=C(C)C)CC[C@@]35C)C[C@]4(CCC(=O)O)[C@H]12` (relative stereo)?
Answer: IC50 [1]: 85.7 µM; inhibition [3]: 81.2%; IC50 [5]: < 8.1 µM; inhibition [7]: Active; EC50 [6]: > 10 µM; EC50 (HEK293): 5.2 µM; EC50 (Lu1): > 10 µM; EC50 (MCF7): 7.7 µM; EC50 (KB): 7.3 µM; EC50 (Col2): > 10 µM; EC50 (P388): 2.9 µM

Question: Which results are given for `C=C1C(=O)O[C@@H]2C[C@@H]3[C@]4(CC[C@]5(C)[C@@H]([C@H](C)CC(=O)CC(C)(C)O)CC[C@@]35C)C[C@]4(CCC(=O)OC)[C@H]12` (relative stereo)?
Answer: inhibition [3]: 35.9%; IC50 [5]: < 15.2 µM; inhibition [7]: Active; EC50 [6]: 5.8 µM; EC50 (HEK293): 4.1 µM; EC50 (Lu1): 7.2 µM; EC50 (MCF7): 5.2 µM; EC50 (KB): 6.8 µM; EC50 (Col2): 6.2 µM; EC50 (P388): 1.4 µM

Question: Which results are given for `C=C(C(=O)O)[C@@H]1CC[C@@H]2[C@]3(CC[C@]4(C)[C@@H]([C@H](C)CC(=O)C=C(C)C)CC[C@@]24C)C[C@]13CCC(=O)OC` (relative stereo)?
Answer: selectivity ratio [2]: 1.6; inhibition [3]: 63.7%; EC50 [4]: 43 µM; IC50 [5]: 69.5 µM; EC50 [6]: > 10 µM; EC50 (HEK293): > 10 µM; EC50 (Lu1): > 10 µM; EC50 (MCF7): > 10 µM; EC50 (KB): > 10 µM; EC50 (Col2): > 10 µM; EC50 (P388): > 10 µM

Question: What does the source list for `C=C1COC(=O)CC[C@]23C[C@]24CC[C@]2(C)[C@@H]([C@H](C)CC(=O)C=C(C)C)CC[C@@]2(C)[C@@H]4CC[C@@H]13` (relative stereo)?
Answer: selectivity ratio [2]: > 3.4; inhibition [3]: 11.6%; EC50 [4]: 41.3 µM; IC50 [5]: > 138 µM; EC50 [6]: > 10 µM; EC50 (HEK293): > 10 µM; EC50 (Lu1): > 10 µM; EC50 (MCF7): > 10 µM; EC50 (KB): > 10 µM; EC50 (Col2): > 10 µM; EC50 (P388): > 10 µM

Question: Which results are given for `CC(C)CC(=O)C[C@@H](C)[C@H]1CC[C@@]2(C)[C@@H]3CC[C@H]4[C@](C)(C(=O)O)[C@@H](O)C[C@H](O)[C@@]45C[C@@]35CC[C@]12C` [CARINATIN A]?
Answer: selectivity ratio [2]: 1.8; inhibition [3]: 6%; EC50 [4]: 15.4 µM; IC50 [5]: 27 µM; EC50 [6]: > 10 µM; EC50 (HEK293): > 10 µM; EC50 (Lu1): > 10 µM; EC50 (MCF7): > 10 µM; EC50 (KB): > 10 µM; EC50 (Col2): > 10 µM; EC50 (P388): > 10 µM

Question: Which selectivity ratio [2] does the source give for `C=C(CO)[C@@H]1CC[C@@H]2[C@H](CC[C@]3(C)[C@@H]([C@H](C)CC(=O)C=C(C)C)CC[C@@]23C)C[C@]12CCC(=O)O2` [CARINATIN G] here?
Answer: The selectivity ratio was 3.4.

Question: And the inhibition [3]?
Answer: Its inhibition is 25.5%.

Question: What about the EC50 [4] of the same compound?
Answer: Its EC50 is 13.4 µM.

Question: What about the IC50 [5] of the same compound?
Answer: Its IC50 is 46 µM.

Question: What about the inhibition [7] of the same compound?
Answer: The inhibition was “Active”.

Question: What about the EC50 [6] of the same compound?
Answer: Its EC50 is over 10 µM.

Question: What about the EC50 (HEK293) of the same compound?
Answer: The EC50 was over 10 µM.

Question: And the EC50 (Lu1)?
Answer: The EC50 was over 10 µM.

Question: What about the EC50 (MCF7) of the same compound?
Answer: The EC50 was over 10 µM.

Question: What about the EC50 (KB) of the same compound?
Answer: The EC50 was over 10 µM.

Question: What about the EC50 (Col2) of the same compound?
Answer: Its EC50 is over 10 µM.

Question: What about the EC50 (P388) of the same compound?
Answer: Its EC50 is 4.9 µM.

Question: With `Cc1c2ccncc2c(C)c2c1[nH]c1ccccc12` [ELLIPTECINE] as the compound, how does the EC50 [6] read?
Answer: Its EC50 is 2.2 µM.

Question: And the EC50 (HEK293)?
Answer: The EC50 was 1.9 µM.

Question: What about the EC50 (Lu1) of the same compound?
Answer: The EC50 was 1.1 µM.

Question: And the EC50 (MCF7)?
Answer: Its EC50 is 2.3 µM.

Question: What about the EC50 (KB) of the same compound?
Answer: The EC50 was 2.2 µM.

Question: And the EC50 (Col2)?
Answer: The EC50 was 2.2 µM.

Question: And the EC50 (P388)?
Answer: The EC50 was 1.9 µM.

Question: With `COc1cc2c(ccc3c4cc(OC)c(OC)cc4c[n+](C)c23)cc1O` [FAGARONINE] as the compound, how does the IC50 [1] read?
Answer: The IC50 was 26.5 µM.

Question: With `C=C1C(=O)O[C@@H]2C[C@@H]3[C@]4(CC[C@]5(C)[C@@H]([C@H](C)CC(=O)C=C(C)C)CC[C@@]35C)C[C@]4(CCC(=O)OC)[C@H]12` [SECAUBRYOLIDE] as the compound, how does the inhibition [3] read?
Answer: The inhibition was 0.4%.

Question: And the IC50 [5]?
Answer: The IC50 was under 7.9 µM.

Question: And the inhibition [7]?
Answer: Its inhibition is “Active”.

Question: And the EC50 [6]?
Answer: The EC50 was 4.6 µM.

Question: And the EC50 (HEK293)?
Answer: The EC50 was 3.2 µM.

Question: What about the EC50 (Lu1) of the same compound?
Answer: The EC50 was 5 µM.

Question: What about the EC50 (MCF7) of the same compound?
Answer: Its EC50 is 4.2 µM.

Question: What about the EC50 (KB) of the same compound?
Answer: The EC50 was 2 µM.

Question: And the EC50 (Col2)?
Answer: The EC50 was 5.8 µM.

Question: And the EC50 (P388)?
Answer: Its EC50 is 1 µM.

Question: Which EC50 [4] does the source give for `Cc1cn([C@H]2C[C@H](N=[N+]=[N-])[C@@H](CO)O2)c(=O)[nH]c1=O` [ZIDOVUDINE] here?
Answer: The EC50 was 0.00395 µM.

Question: And the IC50 [5]?
Answer: Its IC50 is over 10000 µM.
